According to patent US11685785B2, “Methods and antibodies for modulation of immunoresponse” (Ascendo Biotechnology, Inc., priority 2015, dated 2023):

Test system: LPS-primed monocytes
Experiment: Surface molecule expression on LPS-primed human monocytes (flow cytometry)
Format: cell-based
Conditions: LPS 100 ng/ml, 18 hr, 10 μM compound vs DMSO control; flow cytometry MFI
Experimental: Human monocytes were stimulated with LPS (100 ng/ml) in the presence of either an isotype control IgG, or anti-CD11b antibody (ICRF44) for 18 hr. The cells were harvested and HLA-DR, PD-L1, CD80 and CD86 molecules were analyzed using flow cytometry. Surface molecule expression is presented as the MFI. Values are presented as the mean±SEM from 3 independent experiments.
FIGS. 2 A and B show the effect of cell adhesion to fibrinogen and reduction of PD-L1 expression by binding CD11b, respectively. […] 25000 of K562/CD11b cells adhered to the bottom of fibrinogen (20 μg/ml)-coated wells in the presence of 10 μM ML-C19-A or DMSO at 37° C. for 20 min. The results were quantitated by luciferase-based CellTiter-Glo (Promega CO.). Each bar represents mean±SEM of triplicate determinations from a representative experiment. […] Human monocytes were stimulated with LPS (100 ng/ml) in the presence of either DMSO control or 10 μM of ML-C19-A for 18 hr. The cells were harvested and PD-L1 molecules were analyzed using flow cytometry. Surface molecule expression is presented as the MFI. Values are presented as the mean±SEM from 10 independent experiments.
Primed-monocytes were incubated in the presence of either an isotype control IgG, anti-CD11b antibody (ICRF44) or humanized anti-CD11b antibodies for 18 hr. The cells were harvested and PD-L1 expression on monocytes was analyzed using flow cytometry. […]

In the case of `NS(=O)(=O)c1ccc(N2C(=O)c3cccc4cccc(c34)C2=O)cc1` [ML-C19-A], the “PD-L1 expression in LPS-primed monocytes” value is reported as “inhibitory”.
